{
  "source": "PubChem BioAssay AID1259410",
  "about": "(Chemical Carcinogenesis Research Information System (CCRIS), 2018)",
  "origin": "cited, not measured here",
  "system": "rodent tumor promotion studies, tumor incidence",
  "experiment": "CCRIS tumor promotion studies",
  "data": [
    {"compound": "CCCCN(CCCC)N=O", "values": [
      {"measurement": "outcome", "setting": "Carcinogen: DIETHYLNITROSAMINE, 55-18-5, N-METHYLNITROSOUREA, 684-93-3, DIHYDROXY-DI-N- PROPYLNITROSAMINE, 53609-64-6, Carcinogen: DIETHYLNITROSAMINE, 55-18-5, N-METHYLNITROSOUREA, 684-93-3, DIHYDROXY-DI-N- PROPYLNITROSAMINE, 53609-64-6, Doses [Carcinogen]: 100 MG/KG IN SALINE AT BEGINNING OF STUDY, 20 MG/KG IN CITRATE BUFFERED SOLUTION ON D 2, 5, 8 AND 11, 0.1% IN DRINKING, Doses [Carcinogen]: 100 MG/KG IN SALINE AT BEGINNING OF STUDY, 20 MG/KG IN CITRATE BUFFERED SOLUTION ON D 2, 5, 8 AND 11, 0.1% IN DRINKING, Doses [Promoter]: 0, 50 PPM IN DRINKING WATER BEGINNING POST SEQUENTIAL CARCINOGEN TREATMENT AND CONTINUING FOR DURATION OF STUDY (STUDY D, Route [Carcinogen]: IP, IP, ORAL, Route [Carcinogen]: IP, IP, ORAL, Route [Promoter]: ORAL, Species: RAT, Strain/Sex: F344/MALE", "result": "esophagus: papilloma, squamous cell carcinoma; tongue: papilloma"},
      {"measurement": "outcome", "setting": "Carcinogen: DIETHYLNITROSAMINE, 55-18-5, N-METHYLNITROSOUREA, 684-93-5, DIHYDROXY-DI-N- PROPYLNITROSAMINE, 53609-64-6, Carcinogen: DIETHYLNITROSAMINE, 55-18-5, N-METHYLNITROSOUREA, 684-93-5, DIHYDROXY-DI-N- PROPYLNITROSAMINE, 53609-64-6, Doses [Carcinogen]: 100 MG/KG IN SALINE AT BEGINNING OF STUDY, 20 MG/KG IN CITRATE BUFFERED SOLUTION ON D 2, 5, 8 AND 11, 0.1% IN DRINKING, Doses [Carcinogen]: 100 MG/KG IN SALINE AT BEGINNING OF STUDY, 20 MG/KG IN CITRATE BUFFERED SOLUTION ON D 2, 5, 8 AND 11, 0.1% IN DRINKING, Doses [Promoter]: 0, 50 PPM IN DRINKING WATER BEGINNING POST SEQUENTIAL CARCINOGEN TREATMENT AND CONTINUING FOR DURATION OF STUDY (STUDY D, Route [Carcinogen]: IP, IP, ORAL, Route [Carcinogen]: IP, IP, ORAL, Route [Promoter]: ORAL, Species: RAT, Strain/Sex: F344/MALE", "result": "lung: adenoma; esophagus: papilloma"}
    ]},
    {"compound": "O=C(O)CN(CC(=O)O)CC(=O)O", "values": [
      {"measurement": "outcome", "setting": "Carcinogen: N-BIS(2-HYDROXYPROPYL)NITROSAMINE, 53609-64-6, Doses [Carcinogen]: 0.2% IN DRINKING WATER FOR 2 WK, Doses [Promoter]: 0, 1% IN DIET FOR 30 WK BEGINNING POST CARCINOGEN DOSE (STUDY DURATION: 32 WK), Route [Carcinogen]: ORAL, Route [Promoter]: ORAL, Species: RAT, Strain/Sex: WISTAR/MALE", "result": "bladder: papilloma"},
      {"measurement": "outcome", "setting": "Carcinogen: N-BUTYL-N-(4-HYDROXYBUTYL)NITROSAMINE, 3817-11-6, Doses [Carcinogen]: 500 PPM IN DRINKING WATER FOR 4 WK, Doses [Promoter]: 0, 10000 PPM IN DIET BEGINNING POST CARCINOGEN TREATMENT AND CONTINUING FOR 28 WK (STUDY DURATION: 32 WK), Route [Carcinogen]: ORAL, Route [Promoter]: ORAL, Species: RAT, Strain/Sex: WISTAR/MALE", "result": "urinary bladder: papilloma, transitional cell carcinoma"},
      {"measurement": "outcome", "setting": "Carcinogen: N-BUTYL-N-(4-HYDROXYBUTYL)NITROSAMINE, 3817-11-6, Doses [Carcinogen]: 500 PPM IN DRINKING WATER FOR 4 WK, Doses [Promoter]: 0, 10000 PPM IN DIET FOR 28 WK STARTING POST CARCINOGEN (STUDY DURATION: 32 WK), Route [Carcinogen]: ORAL, Route [Promoter]: ORAL, Species: RAT, Strain/Sex: WISTAR/MALE", "result": "bladder: papilloma, transitional cell carcinoma, squamous cell carcinoma"},
      {"measurement": "outcome", "setting": "Carcinogen: N-ETHYL-N-(2-HYDROXYETHYL)NITROSAMINE, Doses [Carcinogen]: 1000 PPM IN DIET FOR 2 WK, Doses [Promoter]: 500, 10000 PPM IN DIET FOR 30 WK, Route [Carcinogen]: ORAL, Route [Promoter]: ORAL, Species: RAT, Strain/Sex: WISTAR/MALE", "result": "kidney: tubular cell tumor"},
      {"measurement": "outcome", "setting": "Carcinogen: N-ETHYL-N-HYDROXYETHYLNITROSAMINE, 13147-25-6, Doses [Carcinogen]: 0.1% IN DIET FOR 2 WK, Doses [Promoter]: 0, 1% IN DIET BEGINNING POST CARCINOGEN TREATMENT AND CONTINUING FOR 30 WK (STUDY DURATION: 32 WK), Route [Carcinogen]: ORAL, Route [Promoter]: ORAL, Species: RAT, Strain/Sex: F344/MALE", "result": "kidney: adenoma or carcinoma"},
      {"measurement": "outcome", "setting": "Carcinogen: N-ETHYL-N-HYDROXYETHYLNITROSAMINE, 13147-25-6, Doses [Carcinogen]: 1000 PPM IN DIET FOR 2 WK, Doses [Promoter]: 0, 500, 10000 PPM IN DIET FOR 30 WK STARTING POST CARCINOGEN (STUDY DURATION: 32 WK), Doses [Promoter]: 0, 500, 10000 PPM IN DIET FOR 30 WK STARTING POST CARCINOGEN (STUDY DURATION: 32 WK), Route [Carcinogen]: ORAL, Route [Promoter]: ORAL, Species: RAT, Strain/Sex: WISTAR/MALE", "result": "kidney: tubular cell tumor"},
      {"measurement": "outcome", "setting": "Carcinogen: Potassium bromate (7758-01-2), Doses [Carcinogen]: 60, 125, 250 and 500 ppm in drinking water for 13 wk (study duration 52 wk), Doses [Promoter]: 1% in diet for 37 wks starting 2 wk after end of carcinogen administration (study duration 52 wk), Route [Carcinogen]: Oral, Route [Promoter]: Oral, Species: Rat, Strain/Sex: F344 (15/Group)", "result": "kidney: significant increase in multiplicity of atypical tubules and of incidenc"}
    ]},
    {"compound": "CCC(CC)C(=O)NC(N)=O", "values": [
      {"measurement": "outcome", "setting": "Carcinogen: N-NITROSODIETHYLAMINE, 55-18-5, Doses [Carcinogen]: 75 MG IN STERILE SALINE ONCE, Doses [Promoter]: 0, 341 PPM IN DIET BEGINNING 2 WK POST CARCINOGEN DOSE AND CONTINUING FOR DURATION OF STUDY (STUDY DURATION: 78 WK), Route [Carcinogen]: INTRAPERITONEAL, Route [Promoter]: ORAL, Species: RAT, Strain/Sex: F344/MALE", "result": "liver: hepatocellular adenoma; kidney: renal tubular cell adenoma or carcinoma"}
    ]},
    {"compound": "CC(C)C[C@H]1C(=O)N2CCC[C@H]2[C@]2(O)O[C@](NC(=O)[C@@H]3C=C4c5cccc6[nH]c(Br)c(c56)C[C@H]4N(C)C3)(C(C)C)C(=O)N12", "values": [
      {"measurement": "outcome", "setting": "Carcinogen: 3-METHYLCHOLANTHRENE, 56-49-5, Doses [Carcinogen]: 1.5 MG IN TRICAPRYLIN ONCE, Doses [Promoter]: 0, 3 MG/KG/D IN 50% ETHANOL FOR 16 CONSECUTIVE DAYS BEGINNING 2 D PRIOR TO CARCINOGEN DOSE AND AGAIN FOR 14 D BEGINNING, Route [Carcinogen]: SUBCUTANEOUS, Route [Promoter]: SUBCUTANEOUS, Species: RAT, Strain/Sex: SPRAGUE-DAWLEY/MALE", "result": "injection site: tumor"},
      {"measurement": "outcome", "setting": "Carcinogen: N-METHYL-N'-NITRO-N-NITROSOGUANIDINE, 70-25-7, Doses [Carcinogen]: 40 ML OF A 50 UG/ML DEIONIZED WATER SOLUTION 1/2 D FOR 25 WK (AVERAGE TOTAL DOSE 170 MG), Doses [Promoter]: 0, 1, 2, MG/KG IN 0.1 ML/KG OLIVE OIL 1/2 D FOR 25 WK ADMINISTERED POST CARCINOGEN (STUDY DURATION: 52 WK), Doses [Promoter]: 0, 1, 2, MG/KG IN 0.1 ML/KG OLIVE OIL 1/2 D FOR 25 WK ADMINISTERED POST CARCINOGEN (STUDY DURATION: 52 WK), Route [Carcinogen]: ORAL, Route [Promoter]: SUBCUTANEOUS, Species: RAT, Strain/Sex: WISTAR/MALE", "result": "glandular stomach: adenocarcinoma"}
    ]},
    {"compound": "N[C@@H](CC(=O)O)C(=O)O", "values": [
      {"measurement": "outcome", "setting": "Carcinogen: N-BUTYL-N-(4-HYDROXYBUTYL)NITROSAMINE, 3817-11-6, Doses [Carcinogen]: 0.05% IN DRINKING WATER FOR 4 WK, Doses [Promoter]: 0, 5% IN DRINKING WATER FOR 36 WK BEGINNING POST CARCINOGEN TREATMENT (STUDY DURATION: 40 WK), Route [Carcinogen]: ORAL, Route [Promoter]: ORAL, Species: RAT, Strain/Sex: F344/FEMALE", "result": "urinary bladder: carcinoma"},
      {"measurement": "outcome", "setting": "Carcinogen: N-BUTYL-N-(4-HYDROXYBUTYL)NITROSAMINE, 3817-11-6, Doses [Carcinogen]: 0.05% IN DRINKING WATER FOR 4 WK, Doses [Promoter]: 0, 5% IN DRINKING WATER FOR 36 WK BEGINNING POST CARCINOGEN TREATMENT (STUDY DURATION: 40 WK), Route [Carcinogen]: ORAL, Route [Promoter]: ORAL, Species: RAT, Strain/Sex: F344/MALE", "result": "urinary bladder: carcinoma"}
    ]},
    {"compound": "C[C@]12CC[C@@H]3c4ccc(O)cc4CC[C@H]3[C@@H]1CC[C@@H]2OC(=O)CCc1ccccc1", "note": "(tested in a mixture with another compound)", "values": [
      {"measurement": "outcome", "setting": "Carcinogen: N-NITROSOMORPHOLINE, Doses [Carcinogen]: IG, Route [Carcinogen]: GAVAGE, Route [Promoter]: INTRAMUSCULAR, Species: RAT, Strain/Sex: FEMALE", "result": "liver"}
    ]},
    {"compound": "C#C[C@]1(O)CC[C@H]2[C@@H]3CCc4cc(OC)ccc4[C@H]3CC[C@@]21C", "values": [
      {"measurement": "outcome", "setting": "Carcinogen: DIETHYLNITROSAMINE, 55-18-5, Doses [Carcinogen]: 20 MG/KG IN 0.85% SALINE ONCE PRECEDED 24 HR BY 2/3 PARTIAL HEPATECTOMY, Doses [Promoter]: 0, 0.1, 0.5 PPM IN DIET FOR 12 MO BEGINNING 24 HR POST CARCINOGEN (STUDY DURATION: 12 MO), Doses [Promoter]: 0, 0.1, 0.5 PPM IN DIET FOR 12 MO BEGINNING 24 HR POST CARCINOGEN (STUDY DURATION: 12 MO), Route [Carcinogen]: INTRAPERITONEAL, Route [Promoter]: ORAL, Species: RAT, Strain/Sex: CD-1/FEMALE", "result": "liver: hepatocellular carcinoma"}
    ]}
  ]
}
